Laboratory results reported in publication PMC10970924 (Life, 2024).

Columns and labels:
HCT-116 and MCF-7 cells = experiment: Confocal microscopy of intracellular localization; assay type: cell-based, human; details: DOX-1 and DOX-2 5 μM, 24 h; DOX 50 μM, 2 h
Procedure: A total of 24 h later, the studied compounds DOX-1 and DOX-2 at a concentration of 5 µM were added. Following another 24 h incubation period, Hoechst 33342 (Roche) was added, reaching a final concentration of 1.5 µg/mL. After 15 min, the dye-containing media was removed, and DBBS was added. The plate was subsequently analyzed using confocal microscopy (Zeiss LSM800, Jena, Germany).

[1] = system: genomic DNA from chicken erythrocytes; experiment: Agarose gel electrophoresis of DNA compositions; assay type: binding; details: DNA 30 μg/mL; for Interaction with DNA (in words): 11.2 to 180 μM
Procedure: The mixtures were then incubated for 30 min. To visualize nucleic acids, the intercalating dye SYBR Green was added at a ratio of 1:10 to the final volume, and the mixtures were incubated in the dark for an additional 15 min. […] The electrolyte used was TAE buffer (pH 8.0).

MCF-7 [2] = experiment: MTS cytotoxicity assay; details: for IC50: Homo sapiens; for Selectivity index IC50 HSF/IC50 MCF-7: from the mean IC50 value for HSF cells
Excerpt: (§1) The study utilized human cell lines including PC-3 (human prostate adenocarcinoma), HSF (primary human skin fibroblasts), MDA-MB-231 (estrogen-negative breast adenocarcinoma), MCF-7 (estrogen-positive breast adenocarcinoma), MSC (multipotent stem cells derived from adipose tissue), SF-539 (brain gliosarcoma), SNB-19 (glioblastoma), A-498 (kidney carcinoma), M-14 (human melanoma), NCI-H322-M (primary bronchioalveolar carcinoma), HCT-15 (colon adenocarcinoma), and HCT-116 (colorectal intestinal carcinoma). We also used immortalized C2C12 mouse myoblasts (ATCC—CRL-1772). Cancer cell lines were obtained from the ATCC collection and generously provided by the Fox Chase Cancer Center (Philadelphia, USA). Conditionally normal cells, including skin fibroblasts and multipotent stem cells, were isolated by our group from postoperative materials (skin and subcutaneous fat) obtained from a conditionally healthy donor. Reagents and consumables for cell culture work were purchased from PanEco (Russia).
(§2) The cytotoxicity of the compounds under study was assessed using MTS assay on cell cultures. Cells were seeded into 96-well plates at a concentration of 10,000–20,000 cells/mL. After 24 h, gradient concentrations of the compounds were added to the culture medium and the plates were incubated for 72 h. Subsequently, the culture medium was replaced with MTS reagents (Sigma-Aldrich, Burlington, MA, USA) (MTS:PMS (0.18:0.0092 mg/mL)) and dissolved in phenol-free RPMI 1640 medium. After 2 h of incubation, the resulting water-soluble formazan was measured using the TECAN Infinite M200 Pro microplate reader at wavelengths of 555/750 nm. As a control, equivalent volumes of the solvents in which each compound was dissolved (dH2O/DMSO) were used. To calculate the percentage of viable cells relative to the control, which was considered 100%, dose-response curves were plotted against the logarithm of the compound concentration. The concentration of the compound at which cell growth is inhibited by 50% relative to the control was taken as the inhibitory concentration IC50 and calculated using Origin Pro software 8.0.1. The study was conducted in triplicates and in three independent repetitions.

HCT-15 = experiment: MTS cytotoxicity assay; details: Homo sapiens, HCT-15, 72 h, read-out: Cytotoxic concentration IC50, HCT-15
Excerpt: as §1, §2

NCI-H322M = experiment: MTS cytotoxicity assay; details: Homo sapiens, 72 h, read-out: Cytotoxic concentration IC50, NCI-H322M
Excerpt: as §1, §2

A-498 = experiment: MTS cytotoxicity assay; details: Homo sapiens, A498, 72 h, read-out: Cytotoxic concentration IC50, A-498
Excerpt: as §1, §2

MDA-MB-231 = experiment: MTS cytotoxicity assay; details: Homo sapiens, MDA-MB-231, 72 h, read-out: Cytotoxic concentration IC50, MDA-MB-231
Excerpt: as §1, §2

PC-3 [3] = experiment: MTS cytotoxicity assay; details: for IC50: Homo sapiens; for Selectivity index IC50 HSF/IC50 PC-3: MTS assay, from the mean IC50 value for HSF cells
Excerpt: as §1, §2

M14 = experiment: MTS cytotoxicity assay; details: Homo sapiens, M14, 72 h, read-out: Cytotoxic concentration IC50, M14
Excerpt: as §1, §2

[4] = system: C2C12 (immortalized mouse myoblasts); experiment: MTS cytotoxicity assay; details: for Inhibition of C2C12 cell proliferation: MTS assay, sufficiently high concentrations
Excerpt: as §1, §2

SF-539 = experiment: MTS cytotoxicity assay; details: Homo sapiens, SF-539, 72 h, read-out: Cytotoxic concentration IC50, SF-539
Excerpt: as §1, §2

MTS cytotoxicity assay = experiment: MTS cytotoxicity assay
Excerpt: as §1, §2

HCT-116 [5] = experiment: MTS cytotoxicity assay; details: for IC50: Homo sapiens; for IC25, HCT-116 / IC75, HCT-116: test concentration selected based on MTS data; for Times reduced cytotoxicity compared to doxorubicin, HCT-116 / Selectivity index IC50 HSF/IC50 HCT-116: MTS assay; for Selectivity index IC50 HSF/IC50 HCT-116: from the mean IC50 value for HSF cells
Excerpt: as §1, §2

SNB-19 = experiment: MTS cytotoxicity assay; details: Homo sapiens, SNB-19, 72 h, read-out: Cytotoxic concentration IC50, SNB-19
Excerpt: as §1, §2

MCF-7 [6] = experiment: Colony formation assay; assay type: cell-based; details: Homo sapiens, MCF7, 72 h, read-out: Inhibitory concentration IC50, MCF-7
Procedure: (§3) Cells were cultured in a 24-well plate with 1 mL of DMEM nutrient medium for 24 h. […] The experiment was conducted in triplicate and in two or three independent repetitions. Only solvent was added to the control wells instead of the test compounds. Incubation with the drugs continued for three days, after which the grown colonies were washed with cold PBS solution and fixed in a fixing buffer (10% acetic acid, 10% methanol in distilled water) for 15 min. The colonies were stained with a 0.4% solution of crystal violet in 20% ethanol for 30 min and then washed 3 times with dH2O and analyzed under a microscope. The colonies were then dissolved in 10% acetic acid for 40 min on a shaker, and the absorbance of the lysate was read at 590 nm. Results were expressed as a percentage relative to the control, and a dose–response curve was plotted to determine the IC50 value.

PC-3 [7] = experiment: Colony formation assay; assay type: cell-based; details: Homo sapiens, PC-3, 72 h, read-out: Inhibitory concentration IC50, PC-3
Procedure: as §3

HCT-116 [8] = experiment: Colony formation assay; assay type: cell-based; details: Homo sapiens, HCT-116, 72 h, read-out: Inhibitory concentration IC50, HCT-116
Procedure: as §3

[9] = MCF7, 72 h, read-out: Cytotoxic concentration IC50, MCF-7
[10] = test concentration selected based on MTS data
[11] = PC-3, 72 h, read-out: Cytotoxic concentration IC50, PC-3
[12] = HCT-116, 72 h, read-out: Cytotoxic concentration IC50, HCT-116
[13] = HCT-116, read-out: IC50, HCT-116
[14] = colony formation assay, incubation three days

Row | Structure (SMILES) | Penetration into the cell nuclei (in words) (HCT-116 and MCF-7 cells) | IC50 (MCF-7 [2]; [9]) | IC50 (HCT-15) | IC50 (NCI-H322M) | IC50 (A-498) | IC50 (MDA-MB-231) | IC50 (PC-3 [3]; [11]) | IC50 (PC-3 [3]; PC-3, read-out: IC50, PC-3) | IC50 (M14) | Inhibition of C2C12 cell proliferation [4] | IC50 (SF-539) | IC50 (HCT-116 [5]; [12]) | IC50 (HCT-116 [5]; [13]) | IC25, HCT-116 (HCT-116 [5]) | IC75, HCT-116 (HCT-116 [5]) | IC50 (SNB-19) | Interaction with DNA (in words) [1] | Times less potent than unmodified doxorubicin, MCF-7 (MCF-7 [2]; MTS assay) | Selectivity index IC50 HSF/IC50 MCF-7 (MCF-7 [2]; MTS assay) | Selectivity index IC50 HSF/IC50 PC-3 (PC-3 [3]) | further results
1 | COc1cccc2c1C(=O)c1c(O)c3c(c(O)c1C2=O)C[C@@](O)(C(=O)CO)C[C@@H]3O[C@H]1C[C@H](N)[C@H](O)[C@H](C)O1 [DOX, Doxorubicin, reference compound] | efficiently permeates and accumulates in the cell nuclei | 0.09 ± 0.05 µM | 0.46 ± 0.16 µM | 2.46 ± 1.18 µM | 0.35 ± 0.06 µM | 0.73 ± 0.25 µM | 1.05 ± 0.62 µM | 1.1 µM | 0.16 ± 0.02 µM | ≥ 95% | 0.53 ± 0.35 µM | 1.1 ± 0.64 µM | 1 µM | 0.25 µM | 2.5 µM | 0.1 ± 0.04 µM | – | – | – | – | Concentration sufficient to completely prevent migration of DNA ([1]; agarose gel): 15 µM; IC50 (MCF-7 [2]; MCF7, read-out: IC50, MCF-7): 0.05 µM; IC10, MCF-7 (MCF-7 [2]; [10]): 0.01 µM; IC25, MCF-7 (MCF-7 [2]; [10]): 0.02 µM; IC70, MCF-7 (MCF-7 [2]; [10]): 0.2 µM; IC50 at 72 h (MTS cytotoxicity assay; human, HSF primary skin fibroblasts): 1.12 ± 0.66 µM; IC50 at 72 h (MTS cytotoxicity assay; mouse, C2C12 immortalized myoblasts): 0.045 ± 0.004 µM; IC50 (MCF-7 [6]; [14]): 0.06 ± 0.003 µM; IC50 (PC-3 [7]; [14]): 1.17 ± 0.48 µM; IC50 (HCT-116 [8]; [14]): 0.62 ± 0.14 µM
2 | COc1cccc2c1C(=O)c1c(O)c3c(c(O)c1C2=O)CC(O)(C(=O)CO)CC3OC1CC(NC(=O)c2cnc(C)c3c2COC(C)(C)O3)C(O)C(C)O1 (centres unmarked) [DOX-1, N-(3-hydroxy-2-methyl-6-((3,5,12-trihydroxy-3-(2-hydroxyacetyl)-10-methoxy-6,11-dioxo-1,2,3,4,6,11-hexahydrotetracen-1-yl)oxy)tetrahydro-2H-pyran-4-yl)-2,2,8-trimethyl-4H-[1,3]dioxino[4,5-c]pyridine-5-carboxamide] | do not penetrate the cell nuclei | 1.88 ± 0.48 µM | > 100 µM | 7.2 ± 4.76 µM | 4.46 ± 3.19 µM | 4.05 ± 0.96 µM | 5.41 ± 0.88 µM | 6.1 µM | 4.29 ± 1.56 µM | ≥ 95% | 2.06 ± 0.18 µM | 4.63 ± 0.55 µM | 4 µM | 1.7 µM | 9 µM | 5.08 ± 3.4 µM | do not interact with DNA | 20.9 | 3.32 ± 0.87 | 1.12 ± 0.24 | IC25, PC-3 (PC-3 [3]; concentration and corresponding IC used in the Comet assay): 3 µM (IC25); IC50 at 72 h (MTS cytotoxicity assay; mouse): 0.23 ± 0.16 µM; Times reduced cytotoxicity compared to doxorubicin, HCT-116 (HCT-116 [5]): 4.2; Selectivity index IC50 HSF/IC50 HCT-116 (HCT-116 [5]): 1.28 ± 0.18; IC50 (MCF-7 [6]): 0.87 ± 0.12 µM; IC50 (PC-3 [7]): 3.2 ± 0.31 µM; IC50 (HCT-116 [8]): 4.42 ± 3.02 µM
3 | COc1cccc2c1C(=O)c1c(O)c3c(c(O)c1C2=O)CC(O)(C(=O)CO)CC3OC1CC(NC(=O)/C=C/c2cnc(C)c3c2COC(C)(C)O3)C(O)C(C)O1 (centres unmarked) [DOX-2, (E)-N-(3-hydroxy-2-methyl-6-((3,5,12-trihydroxy-3-(2-hydroxyacetyl)-10-methoxy-6,11-dioxo-1,2,3,4,6,11-hexahydrotetracen-1-yl)oxy)tetrahydro-2H-pyran-4-yl)-3-(2,2,8-trimethyl-4H-[1,3]dioxino[4,5-c]pyridin-5-yl)acrylamide] | do not penetrate the cell nuclei | 0.77 ± 0.15 µM | > 200 µM | > 200 µM | 41.7 ± 7.42 µM | 1.58 ± 1.03 µM | 1.97 ± 0.31 µM | – | 2.61 ± 0.24 µM | – | 1.74 ± 0.11 µM | 1.43 ± 0.29 µM | – | – | – | 0.87 ± 0.1 µM | do not interact with DNA | 8.5 | >260 | >100 | Selectivity index for MCF-7, times greater than that of doxorubicin (MCF-7 [2]; MTS assay): 15; inhibition at 200 µM ([4]; Mus musculus, C2C12, read-out: Inhibition of C2C12): ≤ 60%; IC50 at 72 h (MTS cytotoxicity assay; human): > 200 µM; IC50 at 72 h (MTS cytotoxicity assay; mouse): 2.8 ± 1.71 µM; Times reduced cytotoxicity compared to doxorubicin, HCT-116 (HCT-116 [5]): 1.3; Selectivity index IC50 HSF/IC50 HCT-116 (HCT-116 [5]): >140; IC50 (MCF-7 [6]): 1.63 ± 0.04 µM; IC50 (PC-3 [7]): 1.66 ± 0.82 µM; IC50 (HCT-116 [8]): 0.91 ± 0.39 µM
